The record followed here is patent US7968526B2, “Antisense oligonucleotides directed to ribonucleotide reductase R2 and uses thereof in the treatment of cancer” (Lorus Therapeutics Inc., priority 2003, dated 2011).

Type in all cases: in vivo, human cells in mice
The test system of test [1] is Hela S3 human cervix epitheloid carcinoma cells. The experiment in a line: Hela S3 hydroxyurea resistant cervix carcinoma xenograft in SCID mice. As to the method: BxPC-3 is a gemcitabine resistant call line. […] Gemcitabine was administered intravenously every three days at a dose of 100 mg/kg. Antitumour activities were estimated by the inhibition of tumour volume, which was measured with caliper. Each point represents mean tumour volume calculated from 10 animals per experimental group. […] Hela S3 is a hydroxyurea resistant cell line. […] Hydroxyurea was administered intraperitoneally every day at a dose of 250 mg/kg for 10 days. Cisplatin was administered intravenously once a week for three weeks at a dose of 4 mg/kg. Antitumour activities were estimated by the inhibition of tumour volume, which was measured with caliper. Each point represents mean tumour volume calculated from 10 animals per experimental group. […] Cisplatin was administered intravenously once a week for three weeks at a dose of 4 mg/kg. Taxol was administered intravenously once a week for three weeks at a dose of 10 mg/kg. Antitumour activities were estimated by the inhibition of tumour volume, which was measured with caliper. Each point represents mean tumour volume calculated from 10 animals per experimental group. […] Taxol was administered i.p. once a week at a dose of 10 mg/kg. Antitumour activities were estimated by the inhibition of tumour volume (FIG. 12A), which was measured with calipers. Each point represents mean tumour volume calculated from 10 animals per experimental group. Animals were sacrificed and tumour weights taken at the end of the study (FIG. 12C). […] The effects of combined treatment were greater than either treatment alone. […] Cisplatin was administered intravenously once a week for four weeks at a dose of 4 mg/kg. Taxol was administered intravenously once a week for four weeks at a dose of 20 mg/kg. Antitumour activities were estimated by the inhibition of tumour volume, which was measured with caliper. Each point represents mean tumour volume calculated from 9-10 animals per experimental group. […] Cisplatin was administered intravenously once a week for four weeks at a dose of 4 mg/kg. Antitumour activities were estimated by the inhibition of tumour volume, which was measured with caliper. Each point represents mean tumour volume calculated from 10 animals per experimental group. At the end of the study the animals were sacrificed and tumours weighed. […] Taxol was administered i.p. once a week at a dose of 10 mg/kg. Anti-tumour activity was estimated by the inhibition of tumour volume, which was measured with caliper. Each point represents mean tumour volume calculated from 10 animals per experimental group. In addition animals were sacrificed and tumour weights taken at the end of the study. […] CPT-11 was administered i.p. for 5 days at a dose of 20 mg/kg/day. Antitumour activities were estimated by the inhibition of tumour volume, which was measured with caliper. Each point represents mean tumour volume calculated from 10 animals per experimental group. Tumour weights were measured after animals were sacrificed at the end of the treatment. These cells are not resistant to CPT-11 which was used as a positive control.

Test [2] relates to Caki-1 human renal cancer cells. The test can be described thus: Caki-1 renal tumour xenograft, combination with 5-FU or vinblastin (1.3). As to conditions: Caki (renal), CD-1 mouse as printed; SEQ ID NO:1 10 mg/kg i.v. every other day; 5-FU 13 mg/kg/day i.p.; vinblastin 0.6 mg/kg/week i.p. An excerpt:
All treatments were stopped at day 22. […] All treatments were stopped at day 32. […] All treatments were stopped at day 36.

Test [3] concerns A498 human kidney cancer cells. The experiment in a line: A498 kidney tumour xenograft in SCID mice, controls and chemotherapeutics (Example 7). Particulars: oligonucleotides 10 mg/kg/2 days i.v., 5-FU 13 mg/kg/day×5, vinblastine 1 mg/kg/week, gemcitabine 100 mg/kg/week. The text has this:
CD-1 athymic female nude mice, BALB/c nu/nu nude mice, SCID, and SCID beige mice were purchased from Charles River Laboratories (Montreal, Canada) and experiments were typically initiated when the mice were 6-7 weeks old. […] Each experimental group typically contained 10 mice. After the size of tumour reached a mean tumour volume of 50-100 mm^3, treatment was initiated. […] Anti-tumour activity was estimated by the measurement of tumour volume with a calliper at two-three day intervals. Tumour volume was calculated by a formula L×W×H/2, where L indicates length, W indicates width and H indicates height. Within 24 hours after the last treatment, the animals were sacrificed and tumour and body weights were measured. Results of statistical analyses of the data are presented as P values in the figure legends.
Three additional treatment groups received: 5-FU (13 mg/kg/day×5), vinblastine (1 mg/kg/week) and gemcitabine (100 mg/kg/week). […] Caliper measurements at 1-week intervals were used to calculate tumour volumes. Each point in FIG. 28C represents mean tumour volume calculated from 10 animals per experimental group (with the exception of SEQ ID NO: 1 which was 8 animals). […] After 54 days the mice were sacrificed and the A498 tumours weighed. Each bar represents the mean tumour weight and standard error calculated for each treatment group.

Entries after “also recorded” stand apart in the source; their conditions may differ.

Regarding `NC(=O)NO` [Hydroxyurea (HU), Hydroxyurea, reference compound], in test [1] (Hela S3 (cervix), hydroxyurea resistant, SCID, SEQ ID NO:1 10 mg/kg i.v. every other day 6 times, Hydroxyurea 250 mg/kg i.p. daily 10 days, Cisplatin 4 mg/kg i.v. weekly x3), the “Tumour weight as % of saline control” value is recorded as 92%. Moreover, the “Antitumour effect (tumour volume, FIG. 10)” value in test [1] (Hela S3 hydroxyurea resistant, SCID mice, SEQ ID NO:1 10 mg/kg i.v. every other day, Hydroxyurea 250 mg/kg i.p. daily, Cisplatin 4 mg/kg i.v. weekly) is reported as “ineffective against Hydroxyurea-resistant tumour”.
Take `O=c1[nH]cc(F)c(=O)[nH]1` [5-FU, 5-fluorouracil]: in test [2], the “Tumour weight as % of saline control” value was found to be 52%. Moreover, the “Effect on tumour growth (volume and weight)” value in test [3] is “ineffective in stabilization of the tumours; also recorded: tumours that were equal in volume and weight to tumours of saline-treated animals”.
